Where “and” joins values, the source holds several entries; their conditions need not be identical. Identical values can stand only once. Inconclusive results and toxic doses are left out. No stated cut-off is given here; in the data, active means T/C of 150% or more; inactive means T/C below 125%.
Tested on: L1210 leukemia ip in BDF1 mice, survival T/C
Assay: NCI In Vivo Anticancer Drug Screen. Data for tumor model L1210 Leukemia (intraperitoneal) in B6D2F1 (BDF1) mice
Settings: endpoint: mean survival time, higher = longer survival
Procedure, shortened: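 Read-out is survival time, reported as the treated-group measurement over the vehicle-control measurement.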

[1] = dose: 100.0 mg/kg/injection, schedule: Q04DX003 (ip), vehicle: saline
[2] = dose: 200.0 mg/kg/injection, schedule: Q04DX003 (ip), vehicle: saline
[3] = dose: 400.0 mg/kg/injection, schedule: Q04DX003 (ip), vehicle: saline
[4] = dose: 100.0 mg/kg/injection, schedule: Q01DX009 (ip), vehicle: saline
[5] = dose: 200.0 mg/kg/injection, schedule: Q01DX009 (ip), vehicle: saline
[6] = dose: 100.0 mg/kg/injection, schedule: Q01DX009 (ip), vehicle: Klucel (hydroxypropylcellulose) (HPC)
[7] = dose: 200.0 mg/kg/injection, schedule: Q01DX009 (ip), vehicle: Klucel (hydroxypropylcellulose) (HPC)
[8] = dose: 400.0 mg/kg/injection, schedule: Q01DX009 (ip), vehicle: Klucel (hydroxypropylcellulose) (HPC)
[9] = dose: 100.0 mg/kg/injection, schedule: Q04DX003 (ip), vehicle: Klucel (hydroxypropylcellulose) (HPC)
[10] = dose: 200.0 mg/kg/injection, schedule: Q04DX003 (ip), vehicle: Klucel (hydroxypropylcellulose) (HPC)
[11] = dose: 50.0 mg/kg/injection, schedule: Q01DX001 (ip), vehicle: saline
[12] = dose: 100.0 mg/kg/injection, schedule: Q01DX001 (ip), vehicle: saline
[13] = dose: 200.0 mg/kg/injection, schedule: Q01DX001 (ip), vehicle: saline
[14] = dose: 6.25 mg/kg/injection, schedule: Q01DX009 (ip), vehicle: saline
[15] = dose: 25.0 mg/kg/injection, schedule: Q04DX003 (ip), vehicle: saline
[16] = dose: 400.0 mg/kg/injection, schedule: Q04DX003 (ip), vehicle: Klucel (hydroxypropylcellulose) (HPC)
[17] = dose: 400.0 mg/kg/injection, schedule: Q01DX001 (ip), vehicle: saline

Measured: T/C

CC(=O)NCC1CCCO1 (stereo not given)
inactive: dose: 75.0 mg/kg/injection, schedule: Q01DX009 (ip), vehicle: saline 112 % of control | [1] 105 % of control | dose: 150.0 mg/kg/injection, schedule: Q01DX009 (ip), vehicle: saline 103 % of control | [2] 108 % of control | dose: 300.0 mg/kg/injection, schedule: Q01DX009 (ip), vehicle: saline 103 % of control | [3] 106 % of control

C=CCC(CC)(C(=O)OCC)C(=O)OCC
inactive: [4] 107 % of control | [1] 102 % of control | [5] 98 % of control | [2] 113 % of control | dose: 400.0 mg/kg/injection, schedule: Q01DX009 (ip), vehicle: saline 95 % of control | [3] 96 % of control

NC(=O)c1ccccc1OC(=O)Nc1ccc(F)c([N+](=O)[O-])c1
inactive: [6] 97 % of control | [7] 104 % of control | [8] 101 % of control

CCN(CC)CCN(C(=O)C(O)(c1ccccc1)c1ccccc1)C(C)C
inactive: dose: 100.0 mg/kg/injection, schedule: Q04DX002 (ip), vehicle: saline 101 % of control | dose: 200.0 mg/kg/injection, schedule: Q04DX002 (ip), vehicle: saline 108 % of control

CCc1ccc(NC(=O)NC(C)C)cc1
inactive: dose: 50.0 mg/kg/injection, schedule: Q01DX009 (ip), vehicle: Klucel (hydroxypropylcellulose) (HPC) 113 % of control | [6] 91 % of control | [9] 103 % of control | [7] 103 % of control | [10] 92 % of control

Cc1ccc[n+]([O-])c1N=[N+]=[N-]
inactive: [1] 102 % of control | [2] 102 % of control | [3] 98 % of control

COc1ccc([N+](=O)[O-])cc1NC(=O)Nc1ccccc1C(F)(F)F
inactive: [6] 88 % of control and 92 % of control | [7] 92 % of control | [8] 92 % of control

Nc1nnc2c(n1)[nH]c1ccccc12
inactive: [11] 96 % of control | [12] 100 % of control | [13] 93 % of control

CCC(=O)c1ccc2c(c1)N(CCCN1CCN(CCO)CC1)c1ccccc1S2
inactive: dose: 1.56 mg/kg/injection, schedule: Q03HX024 (ip), vehicle: saline 114 % of control | dose: 3.12 mg/kg/injection, schedule: Q03HX024 (ip), vehicle: saline 101 % of control | dose: 4.0 mg/kg/injection, schedule: Q01DX009 (ip), vehicle: saline 101 % of control | [14] 104 % of control | dose: 6.25 mg/kg/injection, schedule: Q03HX024 (ip), vehicle: saline 110 % of control | dose: 6.25 mg/kg/injection, schedule: Q04DX003 (ip), vehicle: saline 113 % of control | dose: 8.0 mg/kg/injection, schedule: Q01DX009 (ip), vehicle: saline 105 % of control | dose: 12.5 mg/kg/injection, schedule: Q04DX003 (ip), vehicle: saline 93 % of control | dose: 18.75 mg/kg/injection, schedule: Q01DX001 (ip), vehicle: saline 110 % of control | [15] 98 % of control | dose: 32.0 mg/kg/injection, schedule: Q01DX009 (ip), vehicle: saline 90 % of control | dose: 37.5 mg/kg/injection, schedule: Q01DX001 (ip), vehicle: saline 103 % of control | dose: 50.0 mg/kg/injection, schedule: Q04DX003 (ip), vehicle: saline 95 % of control | dose: 75.0 mg/kg/injection, schedule: Q01DX001 (ip), vehicle: saline 119 % of control | [1] 115 % of control

COc1ccccc1CNCc1ccccc1
inactive: dose: 75.0 mg/kg/injection, schedule: Q01DX001 (ip), vehicle: other 101 % of control

CCN1C(N)=NC(N)=NC1c1ccccc1 (stereo not given)
inactive: dose: 25.0 mg/kg/injection, schedule: Q01DX001 (ip), vehicle: Klucel (hydroxypropylcellulose) (HPC) 103 % of control | dose: 50.0 mg/kg/injection, schedule: Q01DX001 (ip), vehicle: Klucel (hydroxypropylcellulose) (HPC) 97 % of control | dose: 100.0 mg/kg/injection, schedule: Q01DX001 (ip), vehicle: Klucel (hydroxypropylcellulose) (HPC) 102 % of control and 103 % of control

OCCCNc1nc2ccccc2c2ccccc12
inactive: [4] 102 % of control | [9] 94 % of control | [5] 100 % of control | [10] 102 % of control | [16] 100 % of control

CCCNP(=O)(NCCC)OC1CC(C)(C)N(O)C(C)(C)C1
inactive: dose: 100.0 mg/kg/injection, schedule: Q04DX002 (ip), vehicle: water 90 % of control | dose: 200.0 mg/kg/injection, schedule: Q04DX002 (ip), vehicle: water 87 % of control | dose: 400.0 mg/kg/injection, schedule: Q04DX002 (ip), vehicle: water 97 % of control

Nc1nc(N)c(-c2ccc(Cl)cc2)c(C(F)(F)F)n1
inactive: dose: 75.0 mg/kg/injection, schedule: Q01DX001 (ip), vehicle: saline with Tween-80 95 % of control | dose: 150.0 mg/kg/injection, schedule: Q01DX001 (ip), vehicle: saline with Tween-80 100 % of control | dose: 300.0 mg/kg/injection, schedule: Q01DX001 (ip), vehicle: saline with Tween-80 92 % of control

O=C1c2cc(Cl)ccc2-c2c1cc(Cl)cc2[N+](=O)[O-]
inactive: [9] 100 % of control | [10] 104 % of control | [16] 98 % of control

CC(=O)OCc1ccc(Cl)cc1Cl
inactive: dose: 100.0 mg/kg/injection, schedule: Q04DX003 (ip), vehicle: saline with Tween-80 97 % of control | dose: 200.0 mg/kg/injection, schedule: Q04DX003 (ip), vehicle: saline with Tween-80 97 % of control | dose: 400.0 mg/kg/injection, schedule: Q04DX003 (ip), vehicle: saline with Tween-80 101 % of control

CC(CCc1ccc(OC(=O)c2ccccc2)cc1)OC(=O)c1ccccc1 (stereo not given)
inactive: [11] 101 % of control | [12] 95 % of control | [13] 98 % of control | [17] 95 % of control

COc1cc(/C=C(\C(=O)O)c2cccc3ccccc23)cc(OC)c1OC
inactive: [9] 97 % of control | [10] 107 % of control | [16] 102 % of control

CCCCCCCCCCCCCCCC(=O)Nc1c(C)cccc1Cl
inactive: dose: 100.0 mg/kg/injection, schedule: Q04DX002 (ip), vehicle: saline with Tween-80 96 % of control | dose: 200.0 mg/kg/injection, schedule: Q04DX002 (ip), vehicle: saline with Tween-80 88 % of control | dose: 400.0 mg/kg/injection, schedule: Q04DX002 (ip), vehicle: saline with Tween-80 93 % of control

CS/C(N)=N\N=C/c1ccccc1
inactive: [14] 102 % of control | dose: 12.5 mg/kg/injection, schedule: Q01DX009 (ip), vehicle: saline 102 % of control | dose: 25.0 mg/kg/injection, schedule: Q01DX001 (ip), vehicle: saline 117 % of control | dose: 25.0 mg/kg/injection, schedule: Q01DX009 (ip), vehicle: saline 102 % of control | [15] 97 % of control | [11] 97 % of control | [12] 102 % of control and 105 % of control

Cn1ncc2cncnc21
inactive: [12] 103 % of control | [13] 103 % of control | [17] 103 % of control

CC1(C)OC2C(N)OC(CO)C2O1 (stereo not given)
inactive: [1] 95 % of control | [2] 110 % of control | [3] 104 % of control

From PubChem BioAssay AID248 (DTP/NCI, 2004)
